# Experimental data from ChEMBL document CHEMBL1201862, “PubChem BioAssay data set” (2004).
#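 Dose response: 5 concentrations. Exposure: 48 h. Format: 96-well plates. Endpoint: linear interpolation; highest concentration if not reached. Abbreviation: GI50, concentration required for 50% inhibition of growth.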 The source made the active and inactive calls. No stated cut-off is given here; in the data, active = GI50 up to about 1.1 µM and inactive = higher.
# Legend:
# Test in all cases: NCI tumour cell line growth inhibition, 48 h
# [1] = tested on: K562
# [2] = tested on: DMS-114
# [3] = tested on: SF-268
# [4] = tested on: LXFL 529
# [5] = tested on: A498
# [6] = tested on: SW-620
# [7] = tested on: OVCAR-4
# [8] = tested on: HCC 2998
# [9] = tested on: M14
# [10] = tested on: CAKI-1
# [11] = tested on: NCI-H226
# [12] = tested on: SF-539
# [13] = tested on: UACC-62
# [14] = tested on: NCI-H23
# [15] = tested on: KM-20L2
# [16] = tested on: UO-31
# [17] = tested on: RXF 393
# [18] = tested on: SN12C
# [19] = tested on: Malme-3M
# [20] = tested on: 786-0
# [21] = tested on: OVCAR-5
# [22] = tested on: NCI-H522
# [23] = tested on: A549
# [24] = tested on: CCRF-CEM
# [25] = tested on: HCT-15
# [26] = tested on: HCT-116
# [27] = tested on: SNB-78
# [28] = tested on: SK-MEL-5
# [29] = tested on: TK-10
# [30] = tested on: SK-OV-3
# [31] = tested on: UACC-257
# [32] = tested on: OVCAR-8
# [33] = tested on: NCI-H460
# [34] = tested on: KM12
# [35] = tested on: RPMI-8226
# [36] = tested on: DMS-273
# [37] = tested on: COLO 205
# [38] = tested on: U-251
# [39] = tested on: SK-MEL-28
# [40] = tested on: MOLT-4
# [41] = tested on: DLD-1
# [42] = tested on: SNB-19
# [43] = tested on: HOP-18
# [44] = tested on: SNB-75
# [45] = tested on: SF-295
# [46] = tested on: OVCAR-3
# [47] = tested on: LOX IMVI
# [48] = tested on: HT-29
# [49] = tested on: HOP-62
# [50] = tested on: SK-MEL-2
# [51] = tested on: ACHN
# [52] = tested on: HL-60
# [53] = tested on: M19-MEL
# [54] = tested on: IGROV-1
# [55] = tested on: EKVX
# [56] = tested on: HOP-92
structure (smiles),measurement,setting,value
CCOc1ccccc1NC(=O)CSc1nnc(Cc2ccccc2)o1,GI50,[1],54.8 µM (inactive)
same,GI50,[2],17.6 µM (inactive)
same,GI50,[3],23.9 µM (inactive)
same,GI50,[4],16.6 µM (inactive)
same,GI50,[5],66.7 µM (inactive)
same,GI50,[6],16.6 µM (inactive)
same,GI50,[7],26.4 µM (inactive)
same,GI50,[8],48.1 µM (inactive)
same,GI50,[9],21.9 µM (inactive)
same,GI50,[10],20.5 µM (inactive)
same,GI50,[11],25.2 µM (inactive)
same,GI50,[12],25.5 µM (inactive)
same,GI50,[13],25.8 µM (inactive)
same,GI50,[14],17.2 µM (inactive)
same,GI50,[15],38.1 µM (inactive)
same,GI50,[16],23.9 µM (inactive)
same,GI50,[17],35.7 µM (inactive)
same,GI50,[18],26 µM (inactive)
same,GI50,[19],15.6 µM (inactive)
same,GI50,[20],17.9 µM (inactive)
same,GI50,[21],66.1 µM (inactive)
same,GI50,[22],18.2 µM (inactive)
same,GI50,[23],> 100 µM (inactive)
same,GI50,[24],33.5 µM (inactive)
same,GI50,[25],17.3 µM
same,GI50,[26],30.6 µM (inactive)
same,GI50,[27],81.5 µM (inactive)
same,GI50,[28],19.3 µM (inactive)
same,GI50,[29],71.1 µM (inactive)
same,GI50,[30],44.9 µM (inactive)
same,GI50,[31],29.7 µM (inactive)
same,GI50,[32],27 µM (inactive)
same,GI50,[33],20.2 µM (inactive)
same,GI50,[34],40.3 µM (inactive)
same,GI50,[35],35.6 µM (inactive)
same,GI50,[36],22.7 µM (inactive)
same,GI50,[37],20.6 µM (inactive)
same,GI50,[38],20.2 µM (inactive)
same,GI50,[39],71.4 µM (inactive)
same,GI50,[40],23 µM (inactive)
same,GI50,[41],23.4 µM (inactive)
same,GI50,[42],24 µM (inactive)
same,GI50,[43],20.4 µM (inactive)
same,GI50,[44],56.1 µM (inactive)
same,GI50,[45],98.4 µM (inactive)
same,GI50,[46],17.1 µM (inactive)
same,GI50,[47],15.5 µM (inactive)
same,GI50,[48],35.3 µM (inactive)
same,GI50,[49],> 100 µM (inactive)
same,GI50,[50],23.8 µM (inactive)
same,GI50,[51],22.5 µM (inactive)
same,GI50,[52],35.7 µM (inactive)
same,GI50,[53],34.5 µM (inactive)
same,GI50,[54],47.5 µM (inactive)
Cc1ccc(C)c2c1C1CCCCC3(OCCCO3)C21O (stereo not given),GI50,[1],> 100 µM (inactive)
same,GI50,[2],80 µM (inactive)
same,GI50,[3],> 100 µM (inactive)
same,GI50,[4],> 100 µM (inactive)
same,GI50,[5],> 100 µM (inactive)
same,GI50,[6],> 100 µM (inactive)
same,GI50,[7],> 100 µM (inactive)
same,GI50,[8],> 100 µM (inactive)
same,GI50,[9],> 100 µM (inactive)
same,GI50,[10],> 100 µM (inactive)
same,GI50,[11],> 100 µM (inactive)
same,GI50,[12],> 100 µM (inactive)
same,GI50,[13],> 100 µM (inactive)
same,GI50,[14],> 100 µM (inactive)
same,GI50,[15],> 100 µM (inactive)
same,GI50,[16],> 100 µM (inactive)
same,GI50,[17],> 100 µM (inactive)
same,GI50,[18],> 100 µM (inactive)
same,GI50,[19],> 100 µM (inactive)
same,GI50,[20],> 100 µM (inactive)
same,GI50,[21],> 100 µM (inactive)
same,GI50,[22],> 100 µM (inactive)
same,GI50,[23],> 100 µM (inactive)
same,GI50,[24],> 100 µM (inactive)
same,GI50,[25],> 100 µM
same,GI50,[26],> 100 µM (inactive)
same,GI50,[27],> 100 µM (inactive)
same,GI50,[28],> 100 µM (inactive)
same,GI50,[29],> 100 µM (inactive)
same,GI50,[30],> 100 µM (inactive)
same,GI50,[31],> 100 µM (inactive)
same,GI50,[32],> 100 µM (inactive)
same,GI50,[33],> 100 µM (inactive)
same,GI50,[34],> 100 µM (inactive)
same,GI50,[35],> 100 µM (inactive)
same,GI50,[36],> 100 µM (inactive)
same,GI50,[37],> 100 µM (inactive)
same,GI50,[38],> 100 µM (inactive)
same,GI50,[39],> 100 µM (inactive)
same,GI50,[40],> 100 µM (inactive)
same,GI50,[41],> 100 µM (inactive)
same,GI50,[42],> 100 µM (inactive)
same,GI50,[43],17.1 µM (inactive)
same,GI50,[44],31.7 µM (inactive)
same,GI50,[45],> 100 µM (inactive)
same,GI50,[46],51.4 µM (inactive)
same,GI50,[47],> 100 µM (inactive)
same,GI50,[48],> 100 µM (inactive)
same,GI50,[49],> 100 µM (inactive)
same,GI50,[50],> 100 µM (inactive)
same,GI50,[51],> 100 µM (inactive)
same,GI50,[52],> 100 µM (inactive)
same,GI50,[53],> 100 µM (inactive)
same,GI50,[54],> 100 µM (inactive)
O=C1Cc2nc(CO)c(CO)c(CO)c2CO1,GI50,[1],> 100 µM (inactive)
same,GI50,[2],> 100 µM (inactive)
same,GI50,[3],> 100 µM (inactive)
same,GI50,[4],> 100 µM (inactive)
same,GI50,[5],> 100 µM (inactive)
same,GI50,[6],> 100 µM (inactive)
same,GI50,[8],> 100 µM (inactive)
same,GI50,[9],> 100 µM (inactive)
same,GI50,[10],> 100 µM (inactive)
same,GI50,[12],> 100 µM (inactive)
same,GI50,[13],> 100 µM (inactive)
same,GI50,[14],> 100 µM (inactive)
same,GI50,[15],> 100 µM (inactive)
same,GI50,[16],> 100 µM (inactive)
same,GI50,[18],> 100 µM (inactive)
same,GI50,[19],> 100 µM (inactive)
same,GI50,[20],> 100 µM (inactive)
same,GI50,[21],> 100 µM (inactive)
same,GI50,[22],> 100 µM (inactive)
same,GI50,[23],> 100 µM (inactive)
same,GI50,[24],> 100 µM (inactive)
same,GI50,[25],> 100 µM
same,GI50,[26],> 100 µM (inactive)
same,GI50,[27],> 100 µM (inactive)
same,GI50,[28],> 100 µM (inactive)
same,GI50,[29],> 100 µM (inactive)
same,GI50,[30],> 100 µM (inactive)
same,GI50,[55],> 100 µM (inactive)
same,GI50,[31],> 100 µM (inactive)
same,GI50,[32],> 100 µM (inactive)
same,GI50,[33],> 100 µM (inactive)
same,GI50,[34],> 100 µM (inactive)
same,GI50,[35],> 100 µM (inactive)
same,GI50,[36],> 100 µM (inactive)
same,GI50,[37],> 100 µM (inactive)
same,GI50,[56],> 100 µM (inactive)
same,GI50,[38],> 100 µM (inactive)
same,GI50,[39],> 100 µM (inactive)
same,GI50,[41],> 100 µM (inactive)
same,GI50,[42],> 100 µM (inactive)
same,GI50,[43],> 100 µM (inactive)
same,GI50,[44],> 100 µM (inactive)
same,GI50,[45],> 100 µM (inactive)
same,GI50,[46],> 100 µM (inactive)
same,GI50,[47],> 100 µM (inactive)
same,GI50,[48],> 100 µM (inactive)
same,GI50,[49],> 100 µM (inactive)
same,GI50,[50],> 100 µM (inactive)
same,GI50,[51],> 100 µM (inactive)
same,GI50,[52],> 100 µM (inactive)
same,GI50,[53],> 100 µM (inactive)
same,GI50,[54],> 100 µM (inactive)
